Experimental findings from ChEMBL document CHEMBL3992527, “Design and Synthesis of Novel Nonsteroidal Anti-Inflammatory Drugs and Carbonic Anhydrase Inhibitors Hybrids (NSAIDs-CAIs) for the Treatment of Rheumatoid Arthritis” (J Med Chem, 2017) are described below.

In data set [1] the test system is Rattus norvegicus. Briefly: Antihyperalgesic activity in complete Freund's adjuvant-induced Sprague-Dawley rat rheumatoid arthritis model assessed as increase in weight tolerance on ipsilateral paw at 100 mg/kg, po administered once on day 14 post complete Freund's adjuvant challenge measured after 15 to 30 mins post dose by analgesimetry. Type of data set: functional, organism-based.

The subject of data set [2] is Rattus norvegicus. Briefly: Antihyperalgesic activity in complete Freund's adjuvant-induced Sprague-Dawley rat rheumatoid arthritis model assessed as improvement in postural imbalance by measuring difference between weight burdened on contralateral and ipsilateral paw at 100 mg/kg, po administered once on day 14 post complete Freund's adjuvant challenge measured after 15 to 30 mins by incapacitance test. It is filed as functional, organism-based.

Data set [3] concerns Rattus norvegicus. Briefly: Effect on normal pain sensitivity in complete Freund's adjuvant-induced Sprague-Dawley rat rheumatoid arthritis model assessed as change in contralateral paw withdrawal threshold at 10 mg/kg, po administered once on day 14 post complete Freund's adjuvant challenge measured after 15 to 75 mins by analgesimetry. It is filed as ADME, organism-based. Particulars: in vivo.

The subject of data set [4] is Rattus norvegicus. Briefly: Antihyperalgesic activity in complete Freund's adjuvant-induced Sprague-Dawley rat rheumatoid arthritis model assessed as weight tolerance on ipsilateral paw at 10 mg/kg, po administered once on day 14 post complete Freund's adjuvant challenge measured at 30 mins post dose by analgesimetry (reference value: 47.6 +/- 1.2 g). It is filed as functional.

In another data set the target is Carbonic anhydrase 2 (Homo sapiens, UniProt P00918). Briefly: Inhibition of recombinant human CA2 preincubated for 15 mins by stopped-flow CO2 hydration assay.
For another data set, the target named is Carbonic anhydrase 1 (Homo sapiens, UniProt P00915). Kind of data set: Inhibition of recombinant human CA1 preincubated for 15 mins by stopped-flow CO2 hydration assay.
Carbonic anhydrase 1, sequence (P00915 whole entry): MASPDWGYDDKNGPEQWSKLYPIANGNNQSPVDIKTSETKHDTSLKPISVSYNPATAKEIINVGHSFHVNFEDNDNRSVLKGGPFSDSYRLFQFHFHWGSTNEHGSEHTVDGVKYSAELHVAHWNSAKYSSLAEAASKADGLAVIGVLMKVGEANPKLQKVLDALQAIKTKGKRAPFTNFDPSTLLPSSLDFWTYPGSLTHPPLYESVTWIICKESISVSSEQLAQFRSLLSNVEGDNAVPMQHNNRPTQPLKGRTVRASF
In data set [5] the test system is Rattus norvegicus. Briefly: Antihyperalgesic activity in complete Freund's adjuvant-induced Sprague-Dawley rat rheumatoid arthritis model assessed as increase in weight tolerance on ipsilateral paw at 10 mg/kg, po administered once on day 14 post complete Freund's adjuvant challenge measured at 75 mins post dose by analgesimetry. It is filed as functional, organism-based.

Another data set has as its target Carbonic anhydrase 7 (Homo sapiens, UniProt P43166). Briefly: Inhibition of recombinant human CA7 preincubated for 15 mins by stopped-flow CO2 hydration assay.
A further data set has as its target Carbonic anhydrase 9 (Homo sapiens, UniProt Q16790).
Data set [6] has as its system Rattus norvegicus. Briefly: Antihyperalgesic activity in complete Freund's adjuvant-induced Sprague-Dawley rat rheumatoid arthritis model assessed as weight tolerance on ipsilateral paw at 10 mg/kg, po administered once on day 14 post complete Freund's adjuvant challenge measured at 45 mins post dose by analgesimetry (reference value: 47.6 +/- 1.2 g). Type of data set: functional.

The next data set has as its target Carbonic anhydrase 4 (Homo sapiens, UniProt P22748).
Data set [7] relates to Rattus norvegicus. Kind of data set: Antihyperalgesic activity in complete Freund's adjuvant-induced Sprague-Dawley rat rheumatoid arthritis model assessed as improvement in postural imbalance by measuring difference between weight burdened on contralateral and ipsilateral paw at 10 mg/kg, po administered once on day 14 post complete Freund's adjuvant challenge measured at 45 mins post dose by incapacitance test (reference value: 45.6 +/- …. Type of data set: functional.

Data set [8] concerns Rattus norvegicus. Kind of data set: Antihyperalgesic activity in complete Freund's adjuvant-induced Sprague-Dawley rat rheumatoid arthritis model assessed as improvement in postural imbalance by measuring difference between weight burdened on contralateral and ipsilateral paw at 10 mg/kg, po administered once on day 14 post complete Freund's adjuvant challenge measured at 30 mins post dose by incapacitance test (reference value: 45.6 +/- …. Type of data set: functional.

The target in a further data set is Carbonic anhydrase 12 (Homo sapiens, UniProt O43570). Kind of data set: Inhibition of recombinant human CA12 preincubated for 15 mins by stopped-flow CO2 hydration assay.
Carbonic anhydrase 12, sequence (O43570 whole entry): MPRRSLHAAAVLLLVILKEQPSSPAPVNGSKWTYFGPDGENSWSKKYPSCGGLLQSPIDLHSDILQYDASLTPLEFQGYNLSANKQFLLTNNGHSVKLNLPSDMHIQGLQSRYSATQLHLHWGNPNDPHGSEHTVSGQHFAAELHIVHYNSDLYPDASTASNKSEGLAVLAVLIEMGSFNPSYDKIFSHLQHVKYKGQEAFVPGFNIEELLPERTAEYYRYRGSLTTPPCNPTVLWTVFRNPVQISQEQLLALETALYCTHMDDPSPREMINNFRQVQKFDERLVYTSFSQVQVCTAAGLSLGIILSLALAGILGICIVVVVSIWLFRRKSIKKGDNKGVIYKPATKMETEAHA
Data set [9] concerns Rattus norvegicus. Briefly: Antihyperalgesic activity in complete Freund's adjuvant-induced Sprague-Dawley rat rheumatoid arthritis model assessed as improvement in postural imbalance by measuring difference between weight burdened on contralateral and ipsilateral paw at 10 mg/kg, po administered once on day 14 post complete Freund's adjuvant challenge measured at 60 mins post dose by incapacitance test. It is filed as functional, organism-based.

In data set [10] the test system is Rattus norvegicus. Briefly: Antihyperalgesic activity in complete Freund's adjuvant-induced Sprague-Dawley rat rheumatoid arthritis model assessed as increase in weight tolerance on ipsilateral paw at 10 mg/kg, po administered once on day 14 post complete Freund's adjuvant challenge measured after 45 mins post dose by analgesimetry. It is filed as functional, organism-based.

Data set [11] deals with Rattus norvegicus. Briefly: Antihyperalgesic activity in complete Freund's adjuvant-induced Sprague-Dawley rat rheumatoid arthritis model assessed as improvement in postural imbalance by measuring difference between weight burdened on contralateral and ipsilateral paw at 10 mg/kg, po administered once on day 14 post complete Freund's adjuvant challenge measured after 15 to 30 mins by incapacitance test. It is filed as functional, organism-based.

Data set [12] deals with Rattus norvegicus. Briefly: Antihyperalgesic activity in complete Freund's adjuvant-induced Sprague-Dawley rat rheumatoid arthritis model assessed as increase in weight tolerance on ipsilateral paw at 10 mg/kg, po administered once on day 14 post complete Freund's adjuvant challenge measured after 15 to 75 mins post dose by analgesimetry. It is filed as functional, organism-based.

The test system of data set [13] is Rattus norvegicus. Briefly: Antihyperalgesic activity in complete Freund's adjuvant-induced Sprague-Dawley rat rheumatoid arthritis model assessed as increase in weight tolerance on ipsilateral paw at 10 mg/kg, po administered once on day 14 post complete Freund's adjuvant challenge measured after 30 to 45 mins post dose by analgesimetry. It is filed as functional, organism-based.

Active and inactive are the calls of the source.

Carbonic anhydrase 7, sequence (P43166 whole entry): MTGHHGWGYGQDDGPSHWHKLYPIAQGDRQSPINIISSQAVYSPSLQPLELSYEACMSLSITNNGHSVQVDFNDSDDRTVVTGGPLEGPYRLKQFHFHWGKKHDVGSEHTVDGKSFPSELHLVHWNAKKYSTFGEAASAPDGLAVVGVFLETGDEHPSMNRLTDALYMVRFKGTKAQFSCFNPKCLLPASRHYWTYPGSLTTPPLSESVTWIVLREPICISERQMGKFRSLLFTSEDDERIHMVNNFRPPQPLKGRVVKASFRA
Carbonic anhydrase 4, sequence (P22748 whole entry): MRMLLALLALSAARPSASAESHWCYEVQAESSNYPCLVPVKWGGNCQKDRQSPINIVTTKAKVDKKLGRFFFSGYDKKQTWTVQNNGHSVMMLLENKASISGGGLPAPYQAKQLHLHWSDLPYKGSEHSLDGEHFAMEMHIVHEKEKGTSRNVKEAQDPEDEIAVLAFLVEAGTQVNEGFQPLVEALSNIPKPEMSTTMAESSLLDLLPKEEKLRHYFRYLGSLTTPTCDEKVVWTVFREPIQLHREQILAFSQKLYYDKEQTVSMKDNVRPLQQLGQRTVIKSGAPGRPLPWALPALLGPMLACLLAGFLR
Description for Carbonic anhydrase 4: Inhibition of recombinant human CA4 preincubated for 15 mins by stopped-flow CO2 hydration assay
Description for Carbonic anhydrase 9: Inhibition of recombinant human CA9 catalytic domain preincubated for 15 mins by stopped-flow CO2 hydration assay

For the molecule `CC(C)Cc1ccc(C(C)C(=O)O)cc1` (stereo not given), the result in the data set on Rattus norvegicus [1] and with Rattus norvegicus [2] was Active.

As for `CC(C)Cc1ccc(C(C)C(=O)NCCOc2ccc3ccc(=O)oc3c2)cc1` (racemic), the Activity entry was “Non-Toxic” in the data set on Rattus norvegicus [3]; 63.8 g with Rattus norvegicus [4]; 61.3 g in the data set with Rattus norvegicus [6]; 11.1 g in the data set on Rattus norvegicus [7]; 7.9 g with Rattus norvegicus [8]. The Ki – broadly, the dissociation constant of the complex between target and ligand, obtained from inhibition or displacement – on Carbonic anhydrase 2 is above 100 nM; on Carbonic anhydrase 1 it was above 100 nM; on Carbonic anhydrase 7 it was above 100 nM; on Carbonic anhydrase 9, above 100 nM; on Carbonic anhydrase 4 it was 9.1 nM; on Carbonic anhydrase 12, 39 nM. For the same molecule, the outcome with Rattus norvegicus [5] and in the data set on Rattus norvegicus [9] was Active.

Take `CC(C(=O)NCCOc1ccc2ccc(=O)oc2c1)c1ccc(-c2ccccc2)c(F)c1` (racemic): the Activity entry with Rattus norvegicus [3] is reported as “Non-Toxic”. The result in the data set on Rattus norvegicus [10] and in the data set on Rattus norvegicus [11] was Active. In addition, the Ki on Carbonic anhydrase 2, on Carbonic anhydrase 1, on Carbonic anhydrase 7, on Carbonic anhydrase 9 and on Carbonic anhydrase 12 was above 100 nM throughout.

In the case of `CC(C(=O)NCCOc1ccc2oc(=O)ccc2c1)c1ccc(-c2ccccc2)c(F)c1` (racemic), in the data set with Rattus norvegicus [3], the Activity entry is recorded as “Non-Toxic”. For the same molecule, the inhibitory constant (Ki) on Carbonic anhydrase 2, on Carbonic anhydrase 1 and at Carbonic anhydrase 7 was above 100 nM throughout. Also, the result with Rattus norvegicus [12] was inactive.

On to `O=C(Cc1ccccc1Nc1c(Cl)cccc1Cl)NCCOc1ccc2oc(=O)ccc2c1`, for which the Ki on Carbonic anhydrase 2 is above 100 nM; at Carbonic anhydrase 1 it was above 100 nM; on Carbonic anhydrase 7 it was above 100 nM; on Carbonic anhydrase 4, 5.6 nM.

Turning to `CC(C(=O)NCCOc1ccc2oc(=O)ccc2c1)c1cccc(C(=O)c2ccccc2)c1` (racemic), the Ki at Carbonic anhydrase 2 was above 100 nM; on Carbonic anhydrase 1 it was above 100 nM; on Carbonic anhydrase 7, above 100 nM; at Carbonic anhydrase 9, 54.7 nM; on Carbonic anhydrase 12, above 100 nM.

As to `COc1ccc2c(c1)c(CC(=O)NCCOc1ccc3ccc(=O)oc3c1)c(C)n2C(=O)c1ccc(Cl)cc1`, in the data set with Rattus norvegicus [3], the Activity result is on record as “Non-Toxic”. Also, the Ki at Carbonic anhydrase 2 is above 100 nM; at Carbonic anhydrase 1, above 100 nM; at Carbonic anhydrase 7 it was above 100 nM; at Carbonic anhydrase 9 it was 20.1 nM. In the data set on Rattus norvegicus [12], the outcome was inactive.

On to `O=C(Cc1ccccc1Nc1c(Cl)cccc1Cl)NCCOc1ccc2ccc(=O)oc2c1`, for which the Activity result in the data set on Rattus norvegicus [3] is given as “Non-Toxic”. For the same molecule, the Ki at Carbonic anhydrase 2 was above 100 nM; on Carbonic anhydrase 1, above 100 nM; on Carbonic anhydrase 7 it was above 100 nM; at Carbonic anhydrase 4, 9.1 nM. Moreover, the outcome with Rattus norvegicus [12] was inactive.

As for `CC(C(=O)NCCOc1ccc2ccc(=O)oc2c1)c1cccc(C(=O)c2ccccc2)c1` (racemic), in the data set with Rattus norvegicus [3], the Activity entry was “Non-Toxic”. Moreover, the Ki was 85.4 nM on Carbonic anhydrase 2, above 100 nM at Carbonic anhydrase 1, above 100 nM on Carbonic anhydrase 7 and above 100 nM on Carbonic anhydrase 9. In addition, in the data set on Rattus norvegicus [12], the result was inactive.

With `O=C(c1ccccc1)c1ccc2n1CCC2C(=O)NCCOc1ccc2ccc(=O)oc2c1` (racemic), the Activity entry in the data set with Rattus norvegicus [3] is on record as “Non-Toxic”. Further, the result with Rattus norvegicus [10] was Active. Moreover, the Ki on Carbonic anhydrase 2, at Carbonic anhydrase 1, on Carbonic anhydrase 7, at Carbonic anhydrase 9 and at Carbonic anhydrase 12 was above 100 nM each time.

As to `COc1ccc2cc([C@H](C)C(=O)NCCOc3ccc4ccc(=O)oc4c3)ccc2c1`, the Ki on Carbonic anhydrase 2, on Carbonic anhydrase 1, on Carbonic anhydrase 7 and on Carbonic anhydrase 9 was above 100 nM in each case.

`O=C(c1ccccc1)c1ccc2n1CCC2C(=O)NCCOc1ccc2oc(=O)ccc2c1` (racemic): the Ki on Carbonic anhydrase 2 was above 100 nM; on Carbonic anhydrase 1 it was above 100 nM; at Carbonic anhydrase 7, above 100 nM; at Carbonic anhydrase 9, 31.8 nM; at Carbonic anhydrase 12, above 100 nM.

With `CC1=C(CC(=O)NCCOc2ccc3ccc(=O)oc3c2)c2cc(F)ccc2/C1=C\c1ccc([S+](C)[O-])cc1` (stereo not given), the Activity result in the data set with Rattus norvegicus [3] is “Non-Toxic”. Moreover, the Ki on Carbonic anhydrase 2 was above 100 nM; on Carbonic anhydrase 1, above 100 nM; at Carbonic anhydrase 7 it was above 100 nM; on Carbonic anhydrase 9, 27.9 nM. The result in the data set with Rattus norvegicus [11] and with Rattus norvegicus [13] was Active.

In the case of `CC1=C(CC(=O)NCCOc2ccc3oc(=O)ccc3c2)c2cc(F)ccc2/C1=C\c1ccc([S+](C)[O-])cc1` (stereo not given), the Ki at Carbonic anhydrase 2 is above 100 nM; at Carbonic anhydrase 1, above 100 nM; at Carbonic anhydrase 7, above 100 nM; on Carbonic anhydrase 9, 30.8 nM.

On to `COc1ccc2c(c1)c(CC(=O)NCCOc1ccc3oc(=O)ccc3c1)c(C)n2C(=O)c1ccc(Cl)cc1`, for which the Activity entry in the data set with Rattus norvegicus [3] was “Non-Toxic”. Besides, the outcome with Rattus norvegicus [10] and in the data set on Rattus norvegicus [11] was Active. Also, the Ki is above 100 nM on Carbonic anhydrase 2, above 100 nM at Carbonic anhydrase 1, above 100 nM on Carbonic anhydrase 7 and 31.3 nM at Carbonic anhydrase 9.

With `CC(C)Cc1ccc(C(C)C(=O)NCCOc2ccc3oc(=O)ccc3c2)cc1` (stereo not given), the inhibition constant Ki is above 100 nM on Carbonic anhydrase 2; above 100 nM at Carbonic anhydrase 1; above 100 nM on Carbonic anhydrase 7; above 100 nM on Carbonic anhydrase 9; 0.44 nM at Carbonic anhydrase 4; above 100 nM on Carbonic anhydrase 12.

In the case of `COc1ccc2cc([C@H](C)C(=O)NCCOc3ccc4oc(=O)ccc4c3)ccc2c1`, the Ki on Carbonic anhydrase 2, at Carbonic anhydrase 1, on Carbonic anhydrase 7, at Carbonic anhydrase 9 and on Carbonic anhydrase 12 was above 100 nM throughout.
